From PubChem BioAssay (NCI)
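A five-concentration, 48-hour dose response in 96-well plates underlies each endpoint, interpolated linearly between surrounding concentrations. TGI marks complete inhibition of growth.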

Tests used:
Assay in all cases: NCI anticancer screen, dose series, 48 h
BT-549 breast = tested on: BT-549 breast
SK-MEL-5 melanoma = tested on: SK-MEL-5 melanoma
SF-539 CNS = tested on: SF-539 CNS
SN12C renal = tested on: SN12C renal
CAKI-1 renal = tested on: CAKI-1 renal
ACHN renal = tested on: ACHN renal
MDA-N = tested on: MDA-N
SNB-75 CNS = tested on: SNB-75 CNS
U251 CNS = tested on: U251 CNS
HOP-92 NSCLC = tested on: HOP-92 NSCLC
MCF7 breast = tested on: MCF7 breast

Measured: TGI

O=C(O)c1ccccc1CC1Cc2ccccc2C1=O (stereo not given)
> 100 µM: all assays above

CC(=N/N=C/c1ccccn1)/C(C)=N/N=C(C)/C(C)=N/N=C(C)/C(C)=N/N=C(C)/C(C)=N\N=C\c1ccccn1
> 100 µM: all assays above

COc1ccc(-c2nc(SCC(=O)N/N=C/c3ccc(N(C)C)cc3)[nH]c2-c2ccc(OC)cc2)cc1
> 100 µM: all assays above

CCCCC(C(=O)NCCNC(=O)CCC(=O)N(C)O)C(=O)NCCNC(=O)CCC(=O)N(C)O
> 100 µM: all assays above

CC(=O)Nc1nc(C#N)[nH]c1C#N
> 100 µM: all assays above
